Experimental data as given in patent US9845319B2, “Amide substituted thiazoles as modulators of RORyt” (Janssen Pharmaceutica NV, priority 2014, dated 2017).
Read-outs that look alike come from different tables or passages of the source.

Assays:
[1] = biological target: T1, human RORγt ligand binding domain (RORγt LBD) (Homo sapiens, UniProt P51449); experiment: RORγt ThermoFluor assay; details: estimated from thermal shift concentration response
T1 construct: His-tag (N); TurboTEV protease cleavage site (ENLYFQG) (N); made in house; host or cells: E. coli (pHIS1, a modified pET expression vector)
T1 sequence (P51449 with tags, fused parts or gaps): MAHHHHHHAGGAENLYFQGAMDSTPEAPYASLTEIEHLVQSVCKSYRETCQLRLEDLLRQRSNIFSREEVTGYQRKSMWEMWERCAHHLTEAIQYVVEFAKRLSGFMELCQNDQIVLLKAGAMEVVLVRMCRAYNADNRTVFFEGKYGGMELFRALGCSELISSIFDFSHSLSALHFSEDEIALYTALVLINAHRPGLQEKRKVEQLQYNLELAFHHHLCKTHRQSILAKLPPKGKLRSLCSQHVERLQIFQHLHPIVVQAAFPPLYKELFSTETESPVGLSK
In short: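 Thermal shift of RORγt LBD (0.065 mg/mL) with 60 μM 1,8-ANS in 100 mM Hepes pH 7.0, NaCl, GSH, 0.002% Tween-20, heated at 1° C/min. ANS fluorescence tracked versus temperature; ΔTm relative to DMSO wells. Compounds serially diluted 1:2 from 10 mM DMSO stock.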

[2] = test system: IL-17 production by CD4 T cells; experiment: Human Th17 Assay; assay type: cell-based; details: 72 h, read-out: Human Th17 Assay, IC50
Method: The human Th17 assay tests the effect of RORγt modulatory compounds on IL-17 production by CD4 T cells under conditions which favor Th17 differentiation. Total CD4^+ T cells were isolated from the peripheral blood mononuclear cells (PBMC) of healthy donors using a CD4^+ T cell isolation kit II, following the manufacturer's instructions (Miltenyi Biotec). […] 50 μL of compound at titrated concentrations in DMSO were added into each well at final DMSO concentration at 0.2%. Cells were incubated for 1 hour, then 50 μL of Th17 cell differentiation medium was added to each well. The final concentrations of antibodies and cytokines (R&D Systems) in differentiation medium were: 3×10^6/mL anti-CD3/CD28 beads (prepared using human T cell activation/expansion kit, Miltenyi Biotec), 10 μg/mL anti-IL4, 10 μg/mL anti-IFNγ, 10 ng/mL IL1β, 10 ng/mL IL23, 50 ng/mL IL6, 3 ng/mL TGFβ and 20 U/mL IL2. Cells were cultured at 37° C. and 5% CO2 for 3 days. Supernatants were collected and the accumulated IL-17 in culture was measured by using MULTI-SPOT® Cytokine Plate following manufacture's instruction (Meso Scale Discovery). The plate was read using Sector Imager 6000, and IL-17 concentration was extrapolated from the standard curve. The IC50s were determined by GraphPad.

[3] = biological target: T2, full-length human RORγt (Homo sapiens, UniProt P51449); experiment: RORγt (full-length human) Reporter Assay, Conditions A; assay type: cell-based; details: for IC50: HEK293T cells, GAL4-DBD-RORγt, luciferase, read-out: RORγt (FL) Reporter Assay A, IC50; for inhibition at 6 µM: read-out: RORγt (FL) Reporter Assay A, % inhibition @ 6 μM, 6 μM compound
T2 construct: expressed in transfected cells; host or cells: HEK293T, transiently transfected with pCMV-BD-ROR
T2 sequence (P51449 1-497 isoform P51449-2): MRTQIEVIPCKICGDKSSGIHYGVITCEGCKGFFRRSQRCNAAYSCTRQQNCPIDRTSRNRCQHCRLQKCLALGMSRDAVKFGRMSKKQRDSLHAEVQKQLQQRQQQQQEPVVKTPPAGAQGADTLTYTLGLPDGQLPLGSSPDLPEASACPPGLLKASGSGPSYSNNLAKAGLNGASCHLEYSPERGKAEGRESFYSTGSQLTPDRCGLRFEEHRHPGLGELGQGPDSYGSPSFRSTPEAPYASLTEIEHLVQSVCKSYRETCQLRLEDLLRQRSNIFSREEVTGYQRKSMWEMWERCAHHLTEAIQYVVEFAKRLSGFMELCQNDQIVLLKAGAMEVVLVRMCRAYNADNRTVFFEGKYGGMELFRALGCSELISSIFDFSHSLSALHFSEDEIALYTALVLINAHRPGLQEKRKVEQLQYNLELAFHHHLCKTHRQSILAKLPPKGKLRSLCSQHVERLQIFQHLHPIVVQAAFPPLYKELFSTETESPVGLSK
In short: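 Reporter cells lysed after 16–20 h compound exposure; firefly and Renilla luciferase luminescence measured. Firefly signal normalised to DMSO and saturating reference compound, then to Renilla; IC50 from normalised data versus concentration, percent inhibition relative to DMSO.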

[4] = IL-17 in supernatant, 3 days, human CD4+ T cells

Structure (SMILES)	Kd [1] [nM]	IC50 [2, 4] [nM]	IC50 [3] [nM]	inhibition at 6 µM [3] [%]	IC50 ([2]; Homo sapiens, CD4+ T) [nM]
C[C@H](NS(=O)(=O)c1ccc(-c2sc(-c3nnc(C(C)(C)O)o3)nc2C(=O)N2CCC(F)(F)CC2)c(Cl)c1Cl)C(F)(F)F [Example 4/4, (S)-2,3-Dichloro-4-(4-(4,4-difluoropiperidine-1-carbonyl)-2-(5-(2-hydroxypropan-2-yl)-1,3,4-oxadiazol-2-yl)thiazol-5-yl)-N-(1,1,1-trifluoropropan-2-yl)benzenesulfonamide]					15
C[C@H](NS(=O)(=O)c1ccc(-c2sc(-c3nnc(C(C)(C)O)o3)nc2C(=O)N2CCOC[C@@H]2C)c(Cl)c1Cl)C(F)(F)F [Example 6/9, 2,3-Dichloro-4-(2-(5-(2-hydroxypropan-2-yl)-1,3,4-oxadiazol-2-yl)-4-((S)-3-methylmorpholine-4-carbonyl)thiazol-5-yl)-N—((S)-1,1,1-trifluoropropan-2-yl)benzenesulfonamide]	6.5	100	110	108	
CC(C)(O)c1nnc(-c2nc(C(=O)N3CCC(F)(F)CC3)c(-c3ccc(C(O)C4(C(F)(F)F)CC4)c(Cl)c3Cl)s2)o1 (stereo not drawn) [Example 8/4, (5-(2,3-Dichloro-4-(hydroxy(1-(trifluoromethyl)cyclopropyl)methyl)phenyl)-2-(5-(2-hydroxypropan-2-yl)-1,3,4-oxadiazol-2-yl)thiazol-4-yl)(4,4-difluoropiperidin-1-yl)methanone]	12	~6000	320	47	
C[C@H](NS(=O)(=O)c1ccc(-c2sc(-c3cc(CC(C)(C)C(=O)O)on3)nc2C(=O)N2CC(F)(F)C[C@@H]2C)c(C(F)F)c1F)C(F)(F)F [Example 18/1, 3-(3-(4-((S)-4,4-Difluoro-2-methylpyrrolidine-1-carbonyl)-5-(2-(difluoromethyl)-3-fluoro-4-(N—((S)-1,1,1-trifluoropropan-2-yl)sulfamoyl)phenyl)thiazol-2-yl)isoxazol-5-yl)-2,2-dimethylpropanoic acid]	5.6	470	170	104	
CC1(NS(=O)(=O)c2ccc(-c3sc(-c4nnc(C(C)(C)O)o4)nc3C(=O)N3CCC(F)(F)CC3)c(Cl)c2Cl)CC1 [Example 21, 2,3-Dichloro-4-(4-(4,4-difluoropiperidine-1-carbonyl)-2-(5-(2-hydroxypropan-2-yl)-1,3,4-oxadiazol-2-yl)thiazol-5-yl)-N-(1-methylcyclopropyl)benzenesulfonamide]	4.7		67	107	
C[C@H](NS(=O)(=O)c1ccc(-c2sc(-c3nnc(C(C)(C)O)o3)nc2C(=O)N2CCC(F)(F)CC2)c2c1CCCO2)C(F)(F)F [Example 24, 8-(4-(4,4-Difluoropiperidine-1-carbonyl)-2-(5-(2-hydroxypropan-2-yl)-1,3,4-oxadiazol-2-yl)thiazol-5-yl)-N—((S)-1,1,1-trifluoropropan-2-yl)chroman-5-sulfonamide]	5.2		190	97	
C[C@H](NS(=O)(=O)c1ccc(-c2sc(-c3nnc(C(C)(C)O)o3)nc2C(=O)N2CCC(F)(F)CC2)c(F)c1C(F)(F)F)C(F)(F)F [Example 25, 4-(4-(4,4-Difluoropiperidine-1-carbonyl)-2-(5-(2-hydroxypropan-2-yl)-1,3,4-oxadiazol-2-yl)thiazol-5-yl)-3-fluoro-2-(trifluoromethyl)-N—((S)-1,1,1-trifluoropropan-2-yl)benzenesulfonamide]	10		93	98	
Cc1c(S(=O)(=O)N[C@@H](C)C(F)(F)F)ccc(-c2sc(-c3nnc(C(C)(C)O)o3)nc2C(=O)N2CCC(F)(F)CC2)c1F [Example 26, 4-(4-(4,4-Difluoropiperidine-1-carbonyl)-2-(5-(2-hydroxypropan-2-yl)-1,3,4-oxadiazol-2-yl)thiazol-5-yl)-3-fluoro-2-methyl-N—((S)-1,1,1-trifluoropropan-2-yl)benzenesulfonamide]	5		86	107	

The next lines start with results.

Kd [1] [nM]	IC50 [2, 4] [nM]	IC50 [3] [nM]	inhibition at 6 µM [3] [%]	Structure (SMILES)	IC50 ([2]; Homo sapiens, CD4+ T) [nM]
1.3	54	1100	89	CCN(CC)C(=O)c1nc(-c2nnc(CC(C)(C)C(=O)O)o2)sc1-c1ccc(S(=O)(=O)N[C@@H](C)C(F)(F)F)c(Cl)c1Cl [Example 1, (S)-3-(5-(5-(2,3-Dichloro-4-(N-(1,1,1-trifluoropropan-2-yl)sulfamoyl)phenyl)-4-(diethylcarbamoyl)thiazol-2-yl)-1,3,4-oxadiazol-2-yl)-2,2-dimethylpropanoic acid]	
2	150	150	104	CC(C)(Cc1nnc(-c2nc(C(=O)N3CCC(F)CC3)c(-c3cc(C(C)(C)C)cc(C(O)(C(F)(F)F)C(F)(F)F)c3)s2)o1)C(=O)O [Example 2/2, 3-(5-(5-(3-(tert-Butyl)-5-(1,1,1,3,3,3-hexafluoro-2-hydroxypropan-2-yl)phenyl)-4-(4-fluoropiperidine-1-carbonyl)thiazol-2-yl)-1,3,4-oxadiazol-2-yl)-2,2-dimethylpropanoic acid]	
0.04	76	57	106	CC[C@H](NS(=O)(=O)c1ccc(-c2sc(-c3noc(CC(C)(C)C(=O)O)n3)nc2C(=O)N2CCC(F)(F)CC2)c(OC(F)(F)F)c1)C(F)(F)F [Example 10/2, (S)-3-(3-(4-(4,4-Difluoropiperidine-1-carbonyl)-5-(4-(N-(1,1,1-trifluorobutan-2-yl)sulfamoyl)-2-(trifluoromethoxy)phenyl)thiazol-2-yl)-1,2,4-oxadiazol-5-yl)-2,2-dimethylpropanoic acid]	
0.64	6000	1900	59	CC[C@H](NS(=O)(=O)c1ccc(-c2sc(-c3nnn[nH]3)nc2C(=O)N2CCCC[C@@H]2C)c(Cl)c1Cl)C(F)(F)F [Example 15, 2,3-Dichloro-4-(4-((S)-2-methylpiperidine-1-carbonyl)-2-(1H-tetrazol-5-yl)thiazol-5-yl)-N—((S)-1,1,1-trifluorobutan-2-yl)benzenesulfonamide]	
3.7	410	350	103	C[C@H](NS(=O)(=O)c1ccc(-c2sc(-c3cc(CC(C)(C)C(=O)O)on3)nc2C(=O)N2CCC(F)(F)CC2)c(C(F)F)c1F)C(F)(F)F [Example 18, (S)-3-(3-(5-(2-(Difluoromethyl)-3-fluoro-4-(N-(1,1,1-trifluoropropan-2-yl)sulfamoyl)phenyl)-4-(4,4-difluoropiperidine-1-carbonyl)thiazol-2-yl)isoxazol-5-yl)-2,2-dimethylpropanoic acid]	
